Data as given in DBAASP.
In brackets after ≈: the same amount, converted by molar mass.

How the values were obtained:
Assay in all cases: ≥ marks a high value that may be exact or a test limit, other limits are often not marked, values filed in µg/mL are converted to µM
[1] = system: Staphylococcus aureus NCTC 8325
Streptococcus mutans = system: Streptococcus mutans
[2] = system: Enterococcus faecalis ATCC 29212
[3] = system: Escherichia coli ATCC 25922
[4] = system: Staphylococcus aureus ATCC 25923
Streptococcus agalactiae = system: Streptococcus agalactiae
[5] = system: Bacillus subtilis ATCC 6051
[6] = system: Pseudomonas aeruginosa ATCC 27853
[7] = system: Mycobacterium tuberculosis H37Rv
[8] = system: Candida albicans ATCC 90028
Bacillus subtilis 168 = system: Bacillus subtilis 168
Escherichia coli B = system: Escherichia coli B
Pseudomonas aeruginosa = system: Pseudomonas aeruginosa
Staphylococcus aureus = system: Staphylococcus aureus

CC[C@H](C)[C@H](NC(=O)[C@H](CC(C)C)NC(=O)CNC(=O)[C@H](CO)NC(=O)[C@H](CC(C)C)NC(=O)[C@@H](NC(=O)[C@H](CCCCN)NC(=O)CNC(=O)[C@@H](NC(=O)[C@H](CC(C)C)NC(=O)[C@@H]1CCCN1C(=O)[C@H](CC(C)C)NC(=O)[C@@H](N)Cc1ccccc1)C(C)C)[C@@H](C)CC)C(N)=O [FLPLVGKILSGLI]
MIC [1]: ≥ 70 µM

NC(=O)[C@H](Cc1ccccc1)NC(=O)[C@H](Cc1c[nH]c2ccccc12)NC(=O)[C@H](CCCN=C(N)N)NC(=O)[C@H](Cc1c[nH]c2ccccc12)NC(=O)[C@H](CCCN=C(N)N)NC(=O)[C@H](Cc1c[nH]c2ccccc12)NC(=O)[C@H](CCCN=C(N)N)NC(=O)[C@H](Cc1ccccc1)NC(=O)[C@H](Cc1c[nH]c2ccccc12)NC(=O)[C@H](CCCN=C(N)N)NC(=O)[C@H](Cc1c[nH]c2ccccc12)NC(=O)[C@H](CCCN=C(N)N)NC(=O)[C@H](Cc1c[nH]c2ccccc12)NC(=O)[C@@H](N)CCCN=C(N)N [RWRWRWFRWRWRWF]
MIC (Streptococcus mutans): 6.76 µM (≈ 16 µg/mL)

CC(C)C[C@H](NC(=O)[C@H](C)N)C(=O)N[C@@H](Cc1ccc(O)cc1)C(=O)N[C@@H](CCCCN)C(=O)N[C@@H](CCCCN)C(=O)N[C@@H](Cc1ccccc1)C(=O)N[C@@H](CCCCN)C(=O)N[C@@H](CCCCN)C(=O)N[C@@H](CCCCN)C(=O)N[C@@H](CC(C)C)C(=O)N[C@@H](CC(C)C)C(=O)N[C@@H](CCCCN)C(=O)N[C@@H](CO)C(=O)N[C@@H](CC(C)C)C(=O)N[C@@H](CCCCN)C(=O)N[C@@H](CCCN=C(N)N)C(=O)N[C@@H](CC(C)C)C(=O)NCC(=O)O [ALYKKFKKKLLKSLKRLG]
MIC [2]: 8.7 µM (≈ 18.8 µg/mL)
MIC [3]: 8.7 µM (≈ 18.8 µg/mL)
MIC [4]: 69.4 µM (≈ 150 µg/mL)
MIC (Streptococcus agalactiae): 4.3 µM (≈ 9.3 µg/mL)

CC[C@H](C)[C@H](NC(=O)[C@H](Cc1c[nH]c2ccccc12)NC(=O)[C@H](Cc1ccccc1)NC(=O)[C@H](CC(C)C)NC(=O)CN)C(=O)N[C@H](C(=O)N[C@@H](CCCCN)C(=O)N[C@@H](CCCCN)C(=O)N[C@H](C(=O)N[C@H](C(=O)NCC(=O)N[C@@H](CCCCN)C(=O)N[C@@H](CC(C)C)C(=O)N[C@@H](CCCN=C(N)N)C(=O)O)[C@@H](C)CC)[C@@H](C)O)[C@@H](C)CC [GLFWIIKKTIGKLR]
MIC [5]: 9.56 µM (≈ 16 µg/mL)
MIC [3]: 9.56 µM (≈ 16 µg/mL)
MIC [6]: 4.78 µM (≈ 8 µg/mL)
MIC [4]: 76.5 µM (≈ 128 µg/mL)

NC(=O)[C@H](Cc1ccccc1)NC(=O)[C@H](Cc1c[nH]c2ccccc12)NC(=O)[C@H](CCCN=C(N)N)NC(=O)[C@H](Cc1c[nH]c2ccccc12)NC(=O)[C@H](CCCN=C(N)N)NC(=O)[C@H](Cc1c[nH]c2ccccc12)NC(=O)[C@H](CCCN=C(N)N)NC(=O)[C@@H]1CCCN1C(=O)[C@H](CO)NC(=O)CNC(=O)[C@H](CO)NC(=O)[C@@H]1CCCN1C(=O)[C@H](Cc1ccccc1)NC(=O)[C@H](Cc1c[nH]c2ccccc12)NC(=O)[C@H](CCCN=C(N)N)NC(=O)[C@H](Cc1c[nH]c2ccccc12)NC(=O)[C@H](CCCN=C(N)N)NC(=O)[C@H](Cc1c[nH]c2ccccc12)NC(=O)[C@@H](N)CCCN=C(N)N [RWRWRWFPSGSPRWRWRWF]
MIC (Streptococcus mutans): 11.5 µM (≈ 32 µg/mL)

CC[C@H](C)[C@H](NC(=O)[C@H](CCCCN)NC(=O)[C@@H](NC(=O)[C@H](Cc1ccccc1)NC(=O)[C@@H](NC(=O)[C@@H]1CCCN1C(=O)[C@H](CS)NC(=O)[C@H](C)N)[C@@H](C)CC)[C@@H](C)O)C(=O)N[C@@H](CCC(N)=O)C(=O)NCC(=O)N[C@H](C(=O)N[C@@H](CS)C(=O)N[C@@H](Cc1ccc(O)cc1)C(=O)N[C@@H](CCCN=C(N)N)C(=O)NCC(=O)O)[C@@H](C)O [ACPIFTKIQGTCYRG]
MIC [7]: 12.1 µM (≈ 20 µg/mL)

NCCCC[C@H](NC(=O)[C@H](CCC(=O)O)NC(=O)[C@H](CC(=O)O)NC(=O)[C@H](CCC(=O)O)NC(=O)[C@H](CC(=O)O)NC(=O)[C@H](CCC(=O)O)NC(=O)[C@H](CC(=O)O)NC(=O)[C@H](CCC(N)=O)NC(=O)[C@H](CCCN=C(N)N)NC(=O)[C@@H](N)CO)C(=O)N[C@@H](CCCN=C(N)N)C(=O)N[C@@H](CCCN=C(N)N)C(=O)N1CCC[C@H]1C(=O)N[C@@H](CCCN=C(N)N)C(=O)O [SRQDEDEDEKRRPR]
MIC [5]: ≥ 1000 µM

CC[C@H](C)[C@H](NC(=O)[C@H](CC(C)C)NC(=O)[C@H](CCCCN)NC(=O)[C@H](CCCCN)NC(=O)[C@@H](NC(=O)[C@H](C)NC(=O)[C@H](CCCCN)NC(=O)[C@@H](NC(=O)[C@H](C)NC(=O)[C@H](Cc1cnc[nH]1)NC(=O)[C@@H]1CCCN1C(=O)[C@@H](NC(=O)[C@H](CC(C)C)NC(=O)[C@@H]1CCCN1C(=O)CNC(=O)[C@@H](NC(=O)[C@H](Cc1ccc(O)cc1)NC(=O)[C@H](CCCCN)NC(=O)[C@H](CCSC)NC(=O)[C@H](Cc1ccccc1)NC(=O)CN)[C@@H](C)CC)[C@@H](C)CC)C(C)C)[C@@H](C)CC)C(N)=O [GFMKYIGPLIPHAVKAIKKLI]
MIC [8]: 25 µM (≈ 58.4 µg/mL)
MIC [3]: 6.25 µM (≈ 14.6 µg/mL)
MIC [1]: 3.13 µM (≈ 7.31 µg/mL)

CC[C@H](C)[C@H](NC(=O)CNC(=O)[C@H](CCCCN)NC(=O)CNC(=O)[C@H](C)NC(=O)[C@H](Cc1ccccc1)NC(=O)[C@H](CCCCN)NC(=O)[C@H](CO)NC(=O)[C@H](Cc1ccccc1)NC(=O)[C@H](CC(C)C)NC(=O)CN)C(=O)N[C@@H](CCCCN)C(=O)N[C@@H](CC(N)=O)C(=O)N[C@@H](CC(C)C)C(=O)N[C@H](C(=O)N[C@@H](Cc1ccccc1)C(=O)N[C@@H](CCCCN)C(=O)NCC(=O)N[C@H](C(=O)N[C@@H](CCCCN)C(=O)N[C@@H](Cc1cnc[nH]1)C(=O)N[C@H](C(=O)NCC(=O)N[C@@H](CCCCN)C(=O)N[C@@H](CCC(=O)O)C(=O)N[C@H](C(=O)NCC(=O)N[C@@H](CCSC)C(=O)N[C@@H](CC(=O)O)C(=O)N[C@H](C(=O)N[C@H](C(=O)N[C@@H](CCCN=C(N)N)C(=O)N[C@H](C(=O)NCC(=O)N[C@H](C(=O)N[C@@H](CC(=O)O)C(=O)N[C@H](C(=O)N[C@@H](C)C(=O)NCC(=O)N[C@H]1CSSC[C@@H](C(=O)O)NC(=O)[C@H](CCC(=O)O)NC(=O)CNC(=O)[C@H](CCCCN)NC(=O)[C@H]([C@@H](C)CC)NC(=O)[C@H](CCCCN)NC1=O)C(C)C)[C@@H](C)CC)[C@@H](C)O)[C@@H](C)CC)C(C)C)C(C)C)[C@@H](C)CC)C(C)C)[C@@H](C)CC [GLFSKFAGKGIKNLIFKGVKHIGKEVGMDVIRTGIDVAGCKIKGEC]
MIC [8]: ≥ 50 µM
MIC [3]: 6 µM (≈ 29.2 µg/mL)
MIC [1]: 12.5 µM (≈ 60.8 µg/mL)

CC[C@H](C)[C@H](NC(=O)[C@H](CC(C)C)NC(=O)[C@@H](N)CCCN=C(N)N)C(=O)N[C@@H](CCCN=C(N)N)C(=O)N[C@H](C(=O)N[C@@H](CCC(=O)O)C(=O)N[C@@H](CCCN=C(N)N)C(=O)N[C@@H](CC(=O)O)C(=O)N[C@@H](CO)C(=O)N[C@H](C(=O)N[C@@H](CCC(=O)O)C(=O)N[C@@H](C)C(=O)N[C@@H](CC(C)C)C(=O)N[C@@H](CCSC)C(=O)N[C@@H](CCCN=C(N)N)C(=O)N1CCC[C@H]1C(=O)N[C@H](C(=O)NCC(=O)N[C@@H](CCCCN)C(=O)O)[C@@H](C)CC)C(C)C)C(C)C [RLIRVERDSVEALMRPIGK]
MIC [7]: ≥ 89.3 µM

CC(C)C[C@H](NC(=O)[C@H](CC(C)C)NC(=O)[C@H](CCCCN)NC(=O)[C@H](CCCCN)NC(=O)[C@H](CC(C)C)NC(=O)[C@H](CCCCN)NC(=O)[C@H](CCCCN)NC(=O)[C@H](CC(C)C)NC(=O)[C@H](CC(C)C)NC(=O)[C@H](CCCCN)NC(=O)[C@H](CCCCN)NC(=O)[C@H](CC(C)C)NC(=O)[C@@H](N)CCCCN)C(=O)N[C@@H](CCCCN)C(=O)O [KLKKLLKKLKKLLK]
MIC (Streptococcus mutans): 4.64 µM (≈ 8 µg/mL)

CC[C@H](C)[C@H](NC(=O)[C@H](CCC(N)=O)NC(=O)[C@H](CCCCN)NC(=O)[C@@H](NC(=O)[C@H](CCC(N)=O)NC(=O)[C@H](CC(N)=O)NC(=O)[C@H](CC(C)C)NC(=O)[C@@H](NC(=O)[C@@H](N)CCCN=C(N)N)C(C)C)C(C)C)C(=O)N[C@@H](CC(C)C)C(=O)N[C@@H](CCCCN)C(=O)O [RVLNQVKQILK]
MIC (Streptococcus mutans): ≥ 93.4 µM

CC[C@H](C)[C@H](NC(=O)[C@H](CCCCN)NC(=O)CNC(=O)[C@H](CC(C)C)NC(=O)[C@@H](NC(=O)[C@H](CCCCN)NC(=O)[C@H](CCCCN)NC(=O)[C@H](Cc1c[nH]c2ccccc12)NC(=O)[C@@H](NC(=O)[C@@H](N)CC(N)=O)C(C)C)C(C)C)C(=O)N[C@H](C(=O)N[C@@H](CCCCN)C(=O)N[C@H](C(=O)N[C@@H](C)C(=O)N[C@@H](CCCCN)C(N)=O)C(C)C)[C@@H](C)CC [NVWKKVLGKIIKVAK]
MIC (Bacillus subtilis 168): 1.3 µM (≈ 2.24 µg/mL)
MIC (Escherichia coli B): 2.5 µM (≈ 4.31 µg/mL)
MIC (Pseudomonas aeruginosa): 22.7 µM (≈ 39.1 µg/mL)
MIC (Staphylococcus aureus): 71.6 µM (≈ 123 µg/mL)
